Structures can show the parent of a compound that is named as a salt. Where two headings read alike, the source gives them in different places.
Legend:
Format in all cases: biochemical
E. coli DNA gyrase = target: T1, E. coli DNA gyrase (Escherichia coli, UniProt P0AES4+P0AES6); assay: DNA gyrase supercoiling assay (E. coli); settings: for % inhibition DNA gyrase / inhibition at 200 µM / inhibition at 100 µM / inhibition at 50 µM: n/a = not active; for inhibition at 200 µM: conc. 200 μM
T1 construct: purchased Inspiralis, UK
T1 sequence (P0AES4 whole entry, one chain of several): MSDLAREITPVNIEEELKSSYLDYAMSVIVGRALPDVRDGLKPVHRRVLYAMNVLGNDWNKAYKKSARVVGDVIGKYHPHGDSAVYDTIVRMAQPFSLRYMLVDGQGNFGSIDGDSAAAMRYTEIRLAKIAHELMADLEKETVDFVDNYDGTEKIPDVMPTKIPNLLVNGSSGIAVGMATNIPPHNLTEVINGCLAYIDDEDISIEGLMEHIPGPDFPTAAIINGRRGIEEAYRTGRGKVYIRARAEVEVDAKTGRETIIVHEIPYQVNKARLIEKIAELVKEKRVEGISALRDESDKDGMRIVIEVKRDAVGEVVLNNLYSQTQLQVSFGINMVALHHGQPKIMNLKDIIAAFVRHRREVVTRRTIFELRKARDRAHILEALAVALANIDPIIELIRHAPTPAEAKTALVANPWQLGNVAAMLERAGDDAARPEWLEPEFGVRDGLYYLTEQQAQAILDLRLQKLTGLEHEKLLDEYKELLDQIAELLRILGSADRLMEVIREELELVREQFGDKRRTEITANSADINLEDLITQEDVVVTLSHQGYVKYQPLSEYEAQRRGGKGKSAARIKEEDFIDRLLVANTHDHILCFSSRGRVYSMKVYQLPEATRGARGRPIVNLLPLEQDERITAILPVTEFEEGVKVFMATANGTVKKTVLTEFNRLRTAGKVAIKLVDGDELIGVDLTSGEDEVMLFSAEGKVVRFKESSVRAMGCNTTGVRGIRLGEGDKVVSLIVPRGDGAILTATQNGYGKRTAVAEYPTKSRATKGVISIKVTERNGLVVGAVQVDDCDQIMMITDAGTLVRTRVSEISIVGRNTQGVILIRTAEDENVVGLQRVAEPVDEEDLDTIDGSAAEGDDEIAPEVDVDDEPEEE
Procedure: (§1) The above compounds were tested for the inhibition of the enzyme DNA gyrase in a gyrase supercoiling assay and for the inhibition of the enzyme topoisomerase IV in a decatenation assay, in both Gram positive and Gram negative bacteria, according to the following methods.
(§2) Both the assays were carried out according to a set-up method modified from the article to Blanche F, et al. “Differential Behaviors of Staphylococcus aureus and Escherichia coli Type II DNA Topoisomerases”, Antimicrob. Agents Chemother., 1996, Vol. 40, No. 12 p. 2714-2720.
(§3) The compounds were screened at single concentration (200, 100 or 50 μM), in duplicate.
(§4) Reagents from S. aureus and E. coli Gyrase Supercoiling Assay kits (Inspiralis, UK) were used. A master mix with a total volume sufficient for the number of reactions to perform was prepared with the following reagents: 5× assay buffer, relaxed pBR322 substrate (0.5 μg/reaction), RNase-DNase free water. Aliquotes of this mix were dispensed in each tube, then 10× compound stock solutions or vehicle control (DMSO), were added to each reaction tube.
(§5) Reaction was started with E. Coli (2 U/reaction) or S. aureus (1 U/reaction) gyrase enzyme addition.
(§6) A sample added with an equal volume of dilution buffer was used as negative control (without enzyme).
(§7) The reaction tubes were gentle vortexed and incubated 30 minutes at 37° C. Each reaction was stopped by adding 30 μl of Stop Buffer and 30 μl chloroform/isoamyl alcohol (24/1), briefly vortexed for 5-10 seconds and centrifuged at 20000×g for 2 minutes. Samples were loaded onto 1% agarose gel and subjected to electrophoresis for 1 hour at 80V constant voltage in TAE (40 mM Tris-acetate, 2 mM EDTA).
(§8) Data acquisition and analysis. Treatment of relaxed pBR322 with DNA gyrase converted the relaxed topoisomers (DNAs of different linking number) to the supercoiled form of the plasmid, which migrates faster on an agarose gel. An upper band might also be visible, which consists of open-circular (nicked) DNA which is present in the relaxed substrate but co-migrates with some of the relaxed topoisomers.
(§9) Bands were visualized by ethidium bromide staining (dilution 1:20000) for 30 minutes followed by destaining in distilled water for 10 minutes.
(§10) In order to evaluate the compounds activity on the enzyme, the bands of supercoiled DNAs in the gel were photographed by a digital imaging system ImageQuant LAS 4000 (GE Healthcare) according to manufacturer's instructions.
(§11) The fluorescent intensity of each band was analyzed by ImageQuant TL software and it was expressed as volume (volume of the uncalibrated quantity of material in the image feature after subtraction of the background intensity by using rolling ball method).
(§12) Each band intensity was compared, as percentage, to vehicle sample band intensity, which served as positive control, on the same gel.
(§13) Inhibitory activity was expressed as percent of inhibition versus the positive control.
(§14) The supercoiled or decatenated DNA bands obtained as described in Example 1 were analysed as follows.
(§15) Bands were analyzed by gel documentation equipment (Syngene, Cambridge, UK) and quantitated using Syngene Gene Tools software. Raw gel data (fluorescent band volumes) collected from Syngene, GeneTools gel analysis software were converted to a percentage of the 100% control (the fully supercoiled or decatenated DNA band). […] The IC50 data were calculated by using the global curve fit non-linear regression tool by selecting the Single, 2 Parameter fit function from the Exponential Decay equation category.

E. coli Topoisomerase IV = target: T2, E. coli Topoisomerase IV (Escherichia coli, UniProt P0AFI2+P20083); assay: Topoisomerase IV decatenation assay (E. coli); settings: for % inhibition Topo IV / inhibition at 200 µM / inhibition at 100 µM / inhibition at 50 µM: n/a = not active; for inhibition at 200 µM: conc. 200 μM; for inhibition at 200 µM / inhibition at 100 µM / inhibition at 50 µM: read-out: % inhibition Topo IV
T2 construct: purchased Inspiralis, UK
T2 sequence (P20083 whole entry): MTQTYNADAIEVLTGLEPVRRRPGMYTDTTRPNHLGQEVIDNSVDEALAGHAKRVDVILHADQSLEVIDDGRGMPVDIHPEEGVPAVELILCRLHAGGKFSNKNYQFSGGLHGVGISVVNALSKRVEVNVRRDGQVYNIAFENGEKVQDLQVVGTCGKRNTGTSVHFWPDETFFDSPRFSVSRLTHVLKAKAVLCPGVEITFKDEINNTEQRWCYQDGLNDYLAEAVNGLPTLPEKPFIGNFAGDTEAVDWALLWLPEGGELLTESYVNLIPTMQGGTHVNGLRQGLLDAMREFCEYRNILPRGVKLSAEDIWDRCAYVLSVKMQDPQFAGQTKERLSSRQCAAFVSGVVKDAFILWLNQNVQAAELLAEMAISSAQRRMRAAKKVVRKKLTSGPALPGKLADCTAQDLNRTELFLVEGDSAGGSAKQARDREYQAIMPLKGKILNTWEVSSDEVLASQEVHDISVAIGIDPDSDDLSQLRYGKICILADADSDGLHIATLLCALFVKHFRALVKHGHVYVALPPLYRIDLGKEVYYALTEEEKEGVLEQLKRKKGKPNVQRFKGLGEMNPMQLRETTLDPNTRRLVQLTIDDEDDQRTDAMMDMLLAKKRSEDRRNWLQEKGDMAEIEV
T2 sequence (P0AFI2 whole entry): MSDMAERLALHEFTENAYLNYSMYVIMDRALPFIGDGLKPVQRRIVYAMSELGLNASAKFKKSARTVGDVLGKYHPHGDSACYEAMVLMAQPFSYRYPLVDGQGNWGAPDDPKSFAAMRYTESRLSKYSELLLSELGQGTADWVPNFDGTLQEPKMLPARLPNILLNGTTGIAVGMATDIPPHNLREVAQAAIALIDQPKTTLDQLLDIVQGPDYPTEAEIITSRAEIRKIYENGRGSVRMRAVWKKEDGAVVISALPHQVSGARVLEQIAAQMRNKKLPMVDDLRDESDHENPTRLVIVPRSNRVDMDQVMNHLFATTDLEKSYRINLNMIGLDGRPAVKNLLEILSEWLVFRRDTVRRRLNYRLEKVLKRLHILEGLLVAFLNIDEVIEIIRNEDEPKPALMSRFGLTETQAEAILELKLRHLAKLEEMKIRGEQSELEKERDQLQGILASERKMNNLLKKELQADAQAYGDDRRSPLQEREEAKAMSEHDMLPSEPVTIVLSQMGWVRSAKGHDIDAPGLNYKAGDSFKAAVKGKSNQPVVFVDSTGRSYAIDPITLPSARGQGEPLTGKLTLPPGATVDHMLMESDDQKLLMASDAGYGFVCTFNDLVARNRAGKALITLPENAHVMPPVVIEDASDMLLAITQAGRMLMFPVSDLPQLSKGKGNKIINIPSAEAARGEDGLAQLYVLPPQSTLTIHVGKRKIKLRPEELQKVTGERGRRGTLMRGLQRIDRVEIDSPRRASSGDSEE
Procedure: as §1, §2, §3
S. aureus and E. coli Topoisomerase IV decatenation kits (Inspiralis, UK) were used. A master mix with a total volume sufficient for the number of reactions to perform was prepared with the following reagents: 5× assay buffer (50 mM HEPES-KOH (pH 7.6), 100 mM potassium glutamate, 10 mM magnesium acetate, 10 mM DTT, 1 mM ATP, 50 μg/ml albumin), kDNA substrate (200 ng/reaction), RNase-DNase free water. Aliquots of this mix were dispensed in each tube, then 10× compound stock solutions or vehicle control (DMSO), were added in each reaction tube.
Reaction was started with Topoisomerase IV enzyme (0.5 U/reaction) addition.
as §6
The reaction tubes were gentle vortexed and incubated 30 minutes at 37° C. Each reaction was stopped by adding 30 μl of Stop Buffer and 30 μl of chloroform/isoamyl alcohol (24/1), briefly vortexed for 5-10 seconds and centrifuged at 20000×g for 2 minutes. Samples taken from the upper phase were loaded into 1% agarose gel and subjected to electrophoresis for 1 hour at 80V constant voltage in TAE (40 mM Tris-acetate, 2 mM EDTA).
Data acquisition and analysis. Due to the high molecular mass, kDNA could not enter an agarose gel under normal electrophoresis conditions, but remained in the wells. In the presence of Topo IV topoisomerase mini-circles (2.5 Kb) were released from kDNA by decatenation and were quickly and easily resolved in the gel at relatively high voltages.
Bands were visualized by ethidium bromide staining (dil 1:20000) for 30 minutes followed by destaining in distilled water for 10 minutes.
For single concentration screening assay, in order to evaluate the compounds activity on the enzymes, the bands of decatenated DNAs in the gel were photographed by a digital imaging system ImageQuant LAS 4000 (GE Healthcare) according to manufacturer's instructions.
as §11, §12, §13, §14, §15

S. aureus DNA gyrase = target: T3, S. aureus DNA gyrase (Staphylococcus aureus, UniProt P0A0K8+P20831); assay: DNA gyrase supercoiling assay (S. aureus); settings: for inhibition at 200 µM: conc. 200 μM
T3 construct: purchased Inspiralis, UK
T3 sequence (P0A0K8 whole entry): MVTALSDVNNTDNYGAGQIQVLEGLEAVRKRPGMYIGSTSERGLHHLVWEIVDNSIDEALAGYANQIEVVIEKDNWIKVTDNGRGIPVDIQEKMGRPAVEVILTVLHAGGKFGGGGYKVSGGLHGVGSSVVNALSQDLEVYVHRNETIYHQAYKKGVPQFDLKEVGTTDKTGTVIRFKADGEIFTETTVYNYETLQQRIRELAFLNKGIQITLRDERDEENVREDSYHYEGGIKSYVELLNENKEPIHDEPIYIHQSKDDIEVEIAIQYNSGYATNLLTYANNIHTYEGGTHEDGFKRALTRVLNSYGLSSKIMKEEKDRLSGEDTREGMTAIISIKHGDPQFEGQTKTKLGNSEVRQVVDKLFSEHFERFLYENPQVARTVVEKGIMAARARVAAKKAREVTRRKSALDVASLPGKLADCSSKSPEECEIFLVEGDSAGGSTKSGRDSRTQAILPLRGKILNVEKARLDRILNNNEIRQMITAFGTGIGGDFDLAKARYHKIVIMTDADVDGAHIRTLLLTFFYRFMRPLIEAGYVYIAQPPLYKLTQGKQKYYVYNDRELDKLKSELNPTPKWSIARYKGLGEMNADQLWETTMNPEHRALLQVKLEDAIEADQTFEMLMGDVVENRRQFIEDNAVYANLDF
T3 sequence (P20831 whole entry): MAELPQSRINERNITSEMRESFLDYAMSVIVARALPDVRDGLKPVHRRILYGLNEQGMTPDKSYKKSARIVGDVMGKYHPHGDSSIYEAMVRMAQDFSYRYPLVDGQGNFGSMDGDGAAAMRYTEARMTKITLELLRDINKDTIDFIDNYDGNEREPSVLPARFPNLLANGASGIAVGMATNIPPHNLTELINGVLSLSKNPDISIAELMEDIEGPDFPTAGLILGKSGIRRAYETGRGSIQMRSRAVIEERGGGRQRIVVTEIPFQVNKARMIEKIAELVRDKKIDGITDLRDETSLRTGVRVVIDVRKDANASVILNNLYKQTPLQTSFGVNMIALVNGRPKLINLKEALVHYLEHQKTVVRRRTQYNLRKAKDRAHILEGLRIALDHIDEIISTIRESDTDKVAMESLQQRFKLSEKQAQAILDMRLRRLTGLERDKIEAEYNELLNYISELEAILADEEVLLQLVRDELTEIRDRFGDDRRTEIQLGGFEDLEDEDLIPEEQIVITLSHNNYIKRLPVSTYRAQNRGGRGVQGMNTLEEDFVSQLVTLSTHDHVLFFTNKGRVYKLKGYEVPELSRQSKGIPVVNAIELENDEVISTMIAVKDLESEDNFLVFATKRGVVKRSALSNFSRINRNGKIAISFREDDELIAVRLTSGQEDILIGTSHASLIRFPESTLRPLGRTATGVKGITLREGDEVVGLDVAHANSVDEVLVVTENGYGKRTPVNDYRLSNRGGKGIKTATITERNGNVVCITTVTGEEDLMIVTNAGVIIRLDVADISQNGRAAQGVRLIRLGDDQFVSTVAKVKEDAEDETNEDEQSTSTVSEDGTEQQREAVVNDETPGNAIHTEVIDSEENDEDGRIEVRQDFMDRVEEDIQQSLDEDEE
Procedure: as §1, §2, §3, §4, §5, §6, §7, §8, §9, §10, §11, §12, §13, §14, §15

[1] = E. coli, concentration-response curve, eight half-log concentrations 0.1 to 300 μM, read-out: IC50 DNA gyrase
[2] = E. coli, concentration-response curve, eight half-log concentrations 0.1 to 300 μM, read-out: IC50 Topo IV
[3] = S. aureus, conc. 100 μM, n/a = not active
[4] = S. aureus, concentration-response curve, eight half-log concentrations 0.1 to 300 μM, read-out: IC50 DNA gyrase
[5] = S. aureus, conc. 50 μM, n/a = not active

## 1,3-dichloroisoquinoline [Compound 66]
E. coli DNA gyrase; E. coli, conc. 100 μM
  % inhibition DNA gyrase: 100%
E. coli DNA gyrase; [1]
  IC50: 2.3 µM
E. coli Topoisomerase IV; E. coli, conc. 100 μM
  % inhibition Topo IV: 58%
E. coli Topoisomerase IV; [2]
  IC50: 3.2 µM
S. aureus DNA gyrase; [3]
  % inhibition DNA gyrase: 87%
S. aureus DNA gyrase; [4]
  IC50: 12.1 µM

## 4-chloro-2H-chromen-2-one [Compound 63]
E. coli DNA gyrase; E. coli, conc. 100 μM
  % inhibition DNA gyrase: 98%
E. coli Topoisomerase IV; E. coli, conc. 100 μM
  % inhibition Topo IV: 51%

## 5-chloro-1,6-naphthyridine [Compound 65]
E. coli DNA gyrase; E. coli, conc. 100 μM
  % inhibition DNA gyrase: 94%
E. coli DNA gyrase; [1]
  IC50: 40.6 µM
E. coli Topoisomerase IV; E. coli, conc. 100 μM
  % inhibition Topo IV: 80%
E. coli Topoisomerase IV; [2]
  IC50: 29.3 µM
S. aureus DNA gyrase; [3]
  % inhibition DNA gyrase: 80%
S. aureus DNA gyrase; [4]
  IC50: 26.8 µM

## O=c1cc(NC2CCN(CCCc3cccc4ocnc34)CC2)c2ccccc2o1 [Compound 27, 4-({1-[3-(1,3-benzoxazol-4-yl)propyl]piperidin-4-yl}amino)-2H-chromen-2-one]
E. coli DNA gyrase; E. coli
  inhibition at 200 µM: 61%
E. coli Topoisomerase IV; E. coli
  inhibition at 200 µM: 53%

## O=c1cc(NC2CCN(CCCc3nccc4ccccc34)CC2)c2ccccc2o1 [Compound 29, 4-({1-[3-(isoquinolin-1-yl)propyl]piperidin-4-yl}amino)-2H-chromen-2-one]
E. coli DNA gyrase
  IC50: 6 µM
E. coli DNA gyrase; E. coli
  inhibition at 200 µM: 92%
E. coli Topoisomerase IV
  IC50: 10 µM
E. coli Topoisomerase IV; E. coli
  inhibition at 200 µM: 100%
S. aureus DNA gyrase
  IC50: 20 µM
S. aureus DNA gyrase; S. aureus, n/a = not active
  inhibition at 200 µM: 86%

## O=C1Cc2cccc(CCCN3CCC(Nc4cc(=O)oc5ccccc45)CC3)c2N1 [Compound 40, 7-(3-{4-[(2-oxo-2H-chromen-4-yl)amino]piperidin-1-yl}propyl)-1,3-dihydro-2H-indol-2-one]
E. coli DNA gyrase; E. coli
  inhibition at 200 µM: 54%
E. coli Topoisomerase IV; E. coli
  inhibition at 200 µM: 78%

## c1ccc2c(N3CCN(CCCNCc4cc5c(cn4)OCS5)CC3)nccc2c1 [Compound 46, 3-[4-(isoquinolin-1-yl)piperazin-1-yl]-N-([1,3]oxathiolo-[5,4-c]pyridin-6-ylmethyl)propan-1-amine]
E. coli DNA gyrase; E. coli
  inhibition at 200 µM: 57%
E. coli Topoisomerase IV; E. coli
  inhibition at 200 µM: 94%
S. aureus DNA gyrase; S. aureus, n/a = not active
  inhibition at 200 µM: 100%

## O=c1cc(NCCCN2CCN(c3nccc4ccc(Cl)cc34)CC2)c2ccccc2o1 [Compound 51, 4-({3-[4-(7-chloroisoquinolin-1-yl)piperazin-1-yl]propyl}amino)-2H-chromen-2-one]
E. coli DNA gyrase
  IC50: 0.9 µM
E. coli DNA gyrase; E. coli, conc. 100 μM
  inhibition at 100 µM: 100%
E. coli Topoisomerase IV
  IC50: 2.4 µM
E. coli Topoisomerase IV; E. coli, conc. 100 μM
  inhibition at 100 µM: 88%
S. aureus DNA gyrase
  IC50: 4.5 µM
S. aureus DNA gyrase; [3]
  inhibition at 100 µM: 91%

## O=c1cc(N[C@H]2C[C@H](N3CCN(c4nccc5ccccc45)CC3)C2)c2ccccc2o1 [Compound 55, trans-4-({3-[4-(isoquinolin-1-yl)piperazin-1-yl]cyclobutyl}amino)-2H-chromen-2-one]
E. coli DNA gyrase
  IC50: 2.1 µM
E. coli DNA gyrase; E. coli, conc. 100 μM
  inhibition at 100 µM: 94%
E. coli Topoisomerase IV
  IC50: 2.6 µM
E. coli Topoisomerase IV; E. coli, conc. 100 μM
  inhibition at 100 µM: 95%
S. aureus DNA gyrase
  IC50: 5.6 µM
S. aureus DNA gyrase; [3]
  inhibition at 100 µM: 86%

## O=c1cc(NCCCN2CCN(c3nccc4cccnc34)CC2)c2ccccc2o1 [Compound 61, 4-({3-[4-(1,7-naphthyridin-8-yl)piperazin-1-yl]propyl}amino)-2H-chromen-2-one]
E. coli DNA gyrase
  IC50: 3.3 µM
E. coli DNA gyrase; E. coli, conc. 100 μM
  inhibition at 100 µM: 92%
E. coli Topoisomerase IV
  IC50: 20.2 µM
E. coli Topoisomerase IV; E. coli, conc. 100 μM
  inhibition at 100 µM: 92%
S. aureus DNA gyrase
  IC50: 8.7 µM
S. aureus DNA gyrase; [3]
  inhibition at 100 µM: 88%

## NC(=O)C1CN(c2nccc3ccccc23)CCN1CCCNc1cc(=O)oc2ccccc12 (stereo not shown) [Compound 89, 4-(isoquinolin-1-yl)-1-{3-[(2-oxo-2H-chromen-4-yl)amino]propyl}piperazine-2-carboxamide hydrochloride]
E. coli DNA gyrase
  IC50: 28 µM
E. coli DNA gyrase; E. coli, conc. 50 μM
  inhibition at 50 µM: 87%
E. coli Topoisomerase IV
  IC50: 54 µM
E. coli Topoisomerase IV; E. coli, conc. 50 μM
  inhibition at 50 µM: 51%

## O=c1cc(NCCCN2CCN(c3nccc4ccccc34)CC2CO)c2ccccc2o1 (stereo not shown) [Compound 90, 4-({3-[2-(hydroxymethyl)-4-(isoquinolin-1-yl)piperazin-1-yl]-propyl}amino)-2H-chromen-2-one]
E. coli DNA gyrase
  IC50: 8.3 µM
E. coli DNA gyrase; E. coli, conc. 50 μM
  inhibition at 50 µM: 93%
E. coli Topoisomerase IV
  IC50: 15.5 µM
E. coli Topoisomerase IV; E. coli, conc. 50 μM
  inhibition at 50 µM: 81%
S. aureus DNA gyrase
  IC50: 9.3 µM
S. aureus DNA gyrase; [5]
  inhibition at 50 µM: 89%

## [O-][n+]1ccc2ccc(F)cc2c1Cl [Compound 100, 1-chloro-7-fluoroisoquinolin-2-ium-2-olate]
E. coli DNA gyrase; E. coli, conc. 50 μM
  % inhibition DNA gyrase: 95%
E. coli DNA gyrase; [1]
  IC50: 4.5 µM
E. coli Topoisomerase IV; E. coli, conc. 50 μM
  % inhibition Topo IV: 76%
E. coli Topoisomerase IV; [2]
  IC50: 10.2 µM
S. aureus DNA gyrase; [5]
  % inhibition DNA gyrase: 91%
S. aureus DNA gyrase; [4]
  IC50: 4.7 µM

— US10221144B2, “Antibacterial compounds having broad spectrum of activity” (priority 2014, dated 2019)
